Legend:
[1] = test system: Green peach aphid (Myzus persicae); assay: Myzus persicae test (MYZUPE), spray treatment of infested bell pepper plants; type: in vivo; settings: 0.8 ppm, after 6 d, spray on bell pepper plants (Capsicum annuum); 100% = all aphids killed, 0% = none killed
Description: Myzus persicae Test (MYZUPE)
(§1) To produce a suitable preparation of active compound, 1 part by weight of active compound is mixed with the stated amounts of solvent and emulsifier, and the concentrate is diluted with emulsifier-containing water to the desired concentration. If addition of ammonium salts or ammonium salts and penetrant is required, the appropriate amount is added by pipette after dilution of the respective finished preparation solution.
Bell pepper plants (Capsicum annuum) which are heavily infested by the Green peach aphid (Myzus persicaei) are treated by spraying with the active compound preparation of the desired concentration.
(§2) After the desired period of time, the kill in % is determined. 100% means that all aphids have been killed; 0% means that none of the aphids have been killed.
(§3) In this test, for example, the following embodiments of the invention show good activity: see table below

[2] = test system: cotton aphid (Aphis gossypii); assay: Aphis gossypii test (APHIGO), spray treatment of infested cotton leaves; type: in vivo; settings: 0.8 ppm, after 6 d, spray on cotton leaves (Gossypium hirsutum); 100% = all aphids killed, 0% = none killed
Description: Aphis gossypii Test (APHIGO)
as §1
Cotton leaves (Gossypium hirsutum) which are heavily infested by the cotton aphid (Aphis gossypii) are sprayed with an active compound preparation of the desired concentration.
as §2, §3

CNC(=O)c1cc(Cl)cc(C)c1NC(=O)c1cc(Br)nn1-c1ncccc1Cl [Example I-1-3]
kill in % (% 6 d) [1]: 0% | kill in % (% 6 d) [2]: 0%
